How the values were obtained:
[1] = castrated male mice
Experimental: (§1) To exploit this pathway we used B6CBAF1/J hybrid male mice reported to be susceptible to ADA. As a control and to remove background testosterone effects all the B6CBAF1/J hybrid male mice were castrated and split into two groups (n=6). The first group served as controls (Vehicle) and the second experimental group was treated with 5-α-dihydrotestosterone (5α-DHT). The 5α-DHT was administered by sub-dermal transplantation of slow release pellets purchased from Innovative Research of America. The control group was also transplanted with identically formulated placebo pellets (without 5α-DHT). Both pellets were transplanted below the right ear using a small incision that was sealed with staples. Specifically, two 21 day release and one 90 day release pellets containing 10 mg of 5α-DHT respectively were used for each experimental mouse with corresponding placebo pellets for the controls (n=6). Hair loss of the mice and the effects of 5α-DHT were then monitored over 5 months as described below.
FIGS. 8A-8B includes DEXA analysis pictures of representative Vehicle and 5α-DHT male castrated mice showing increased bone and lean mass with treated mice. […] Two-way ANOVA analysis of the temporal weight change show significant differences for 5α-DHT treatment (p<0.0001) and change over time (p<0.0001) with no significant interaction (n=6). This confirms 5α-DHT pellet infusion was effective (see also below).
Detailed quantitative analyses of the DEXA experiments are presented graphically in FIG. 9. […] Total and femur analyses are shown and the numbers shown on the histograms above the asterisks (*) are p values calculated using a two-tailed unpaired t test at 95% confidence intervals. A P<0.05 is considered significant and NS indicates not significant.

[2] = femurs, 3D μCT, castrated male mice
Experimental: as §1

[3] = system: hair loss; conditions: castrated male mice
Experimental: as §1

[4] = system: hair density; conditions: hair plucked from defined ROI, castrated male mice, vs placebo
Description: A second method was then used to directly quantitate hair density, hair quality and vellus hair occurrence. Specifically, mice were sacrificed and the pelts removed and fixed in buffered formalin for histology. Also, a plastic template with a fixed portal was used to demarcate a defined and identical region of interest (ROI) between the ears and above the shoulder blades (FIG. 12). Hair was then plucked from this region weighed and microscopically analyzed. […] A plastic template with portal removed was used to facilitate hair removal from defined region of interest (ROI). Top pictures comparing control (right) and experimental (left) hairs removed from the ROI. […] The numbers shown on the histograms above the asterisk (*) is the p value calculated using a two-tailed unpaired t test at 95% confidence intervals. A P<0.05 is considered significant.

C[C@]12CCC(=O)C[C@@H]1CC[C@@H]1[C@@H]2CC[C@]2(C)[C@@H](O)CC[C@@H]12 [5α-DHT, 5-α-dihydrotestosterone]
Bone Mineral Content [BMC] ([1]; DEXA, vs placebo pellets): major increases
Bone mineral Density [BMD] ([1]; DEXA, vs placebo pellets): major increases
lean mass ([1]; DEXA, vs vehicle): increased
lean/fat mass ratios ([1]; DEXA, vs vehicle): increased
weight ([1]; sub-dermal slow release pellets, 5 months, vs placebo pellets): major increases
cancellous bone and trabecular architecture at the top of the epiphyses [2]: major increases
hair loss from head and shoulder blade region (inverse integrated pixel density) ([3]; 5 months, inflection point after 2 months): accelerated hair loss
hair at the pellet implant site ([3]; photographs, vs placebo pellet): major hair loss
hair density, size and quality [4]: significantly reduced

From US10857199B2, “Compounds and methods for increasing hair growth” (The University of Kansas, priority 2014, dated 2020)
